Converted amounts (≈) assume the structure as drawn.
Key:
Apis mellifera = details: acute; duration: 48 hours; oral; unspecified; mortality
Canidae = details: chronic; duration: 1 years; oral; M/F; Dog Other; histopathology: nonneoplastic
Colinus virginianus = details: reproduction developmental
Coturnix japonica = details: acute, oral, mortality
Daphnia magna = details: chronic/long-term; duration: 21 days; reproduction
Oncorhynchus mykiss = details: acute; duration: 96 hours; mortality
Tagia sp. = details: acute; duration: 14 days; mortality
Typhlodromus pyri = details: acute

c1coc(-c2nc3ccccc3[nH]2)c1 [Fuberidazole]
LD50 (Apis mellifera): > 187 µg/piece | NOAEL (Canidae): 0.72 mg/kg-day | NOEC (Colinus virginianus): > 76.9 mg/kg-day | LC50 (Coturnix japonica; diet): > 930 mg/kg-day | LD50 (Coturnix japonica): > 750 mg/kg | NOEC (Daphnia magna): 0.12 mg/L | LC50 (Oncorhynchus mykiss): 0.91 µg/mL (≈ 4.94 µM) | LD50 (Rattus norvegicus; acute, mortality): > 300 mg/kg | NOAEL (Rattus norvegicus; developmental, development): 8 mg/kg-day | NOAEL (Rattus norvegicus; reproduction developmental, mortality): 4 mg/kg-day | LC50 (Tagia sp.): > 1000 mg/kg | LEL (Typhlodromus pyri; duration: 7 days, mortality): 26 g/ha | LEL (Typhlodromus pyri; duration: 14 days, reproduction): 26 g/ha

— EPA's ToxValDB 9.5 (doi:10.2903/j.efsa.2008.118r)
